Reference: the supplement of paper PMC10307832

Assays:
Assay in all cases: relative viability (nuclei count vs DMSO), 5 days (fraction); higher = more cells survive
IU1-47 + Lapatinib = compound: CC1=CC(=C(N1C2=CC=C(C=C2)Cl)C)C(=O)CN3CCCCC3 [IU1-47] + CS(=O)(=O)CCNCc1ccc(-c2ccc3ncnc(Nc4ccc(OCc5cccc(F)c5)c(Cl)c4)c3c2)o1 [Lapatinib] (partner 2 µM)
Method in brief: (§1)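 For relative viability, nuclei counts in treated wells were divided by those in vehicle wells. Lung cancer cell lines had been pin-tool dosed in 1536-well plates the day after seeding and cultured for 5 days, then fixed and stained in one step (final 0.05% Triton X-100, 1% formaldehyde, 1 ug/ml Hoechst) and imaged at 4×. Doses were one drug alone or a fixed anchor-drug dose plus five library-drug doses (not always all listed) in √10 steps, and values are duplicate-plate medians.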

IU1-47 + Foretinib = compound: CC1=CC(=C(N1C2=CC=C(C=C2)Cl)C)C(=O)CN3CCCCC3 [IU1-47] + COc1cc2c(Oc3ccc(NC(=O)C4(C(=O)Nc5ccc(F)cc5)CC4)cc3F)ccnc2cc1OCCCN1CCOCC1 [Foretinib] (partner 0.25 µM)
Method in brief: as §1

FG-4592 + OSI-027 = compound: Cc1nc(C(=O)NCC(=O)O)c(O)c2ccc(Oc3ccccc3)cc12 [FG-4592] + COc1cccc2cc(-c3nc([C@H]4CC[C@H](C(=O)O)CC4)n4ncnc(N)c34)[nH]c12 [OSI-027] (partner 0.5 µM)
Method in brief: as §1

FG-4592 + AZD7762 = compound: Cc1nc(C(=O)NCC(=O)O)c(O)c2ccc(Oc3ccccc3)cc12 [FG-4592] + NC(=O)Nc1cc(-c2cccc(F)c2)sc1C(=O)N[C@H]1CCCNC1 [AZD7762] (partner 0.2 µM)
Method in brief: as §1

Row | Cell Line | relative viability (IU1-47 + Lapatinib; first compound 0.08 µM) | relative viability (IU1-47 + Lapatinib; first compound 0.253 µM) | relative viability (IU1-47 + Lapatinib; first compound 0.8 µM) | relative viability (IU1-47 + Lapatinib; first compound 2.53 µM) | relative viability (IU1-47 + Lapatinib; first compound 8 µM) | relative viability (IU1-47 + Foretinib; first compound 0.08 µM) | relative viability (IU1-47 + Foretinib; first compound 0.253 µM) | relative viability (IU1-47 + Foretinib; first compound 0.8 µM) | relative viability (IU1-47 + Foretinib; first compound 2.53 µM) | relative viability (IU1-47 + Foretinib; first compound 8 µM) | relative viability (FG-4592 + OSI-027; first compound 0.08 µM) | relative viability (FG-4592 + OSI-027; first compound 0.253 µM) | relative viability (FG-4592 + OSI-027; first compound 0.8 µM) | relative viability (FG-4592 + OSI-027; first compound 2.53 µM) | relative viability (FG-4592 + OSI-027; first compound 8 µM) | relative viability (FG-4592 + AZD7762; first compound 0.08 µM) | relative viability (FG-4592 + AZD7762; first compound 0.253 µM) | relative viability (FG-4592 + AZD7762; first compound 0.8 µM) | relative viability (FG-4592 + AZD7762; first compound 2.53 µM) | relative viability (FG-4592 + AZD7762; first compound 8 µM)
1 | NCI-H838 | 0.922 | 0.889 | 1.23 | 1.01 | 0.888 | 1.12 | 1.07 | 0.981 | 1.06 | 1.11 | 0.372 | 0.31 | 0.389 | 0.289 | 0.357 | 0.899 | 0.888 | 0.976 | 0.981 | 0.916
2 | NCI-H1355 | 1.11 | 1.11 | 1.08 | 0.627 | 0.983 | 1.06 | 1.06 | 0.946 | – | 0.998 | 0.376 | 0.372 | 0.353 | 0.301 | 0.35 | 0.907 | 0.669 | – | 0.809 | 0.723
3 | NCI-H1395 | 0.968 | 0.96 | 1.08 | – | 0.892 | 0.944 | 0.895 | 1.12 | 0.939 | 1 | 0.593 | 0.644 | 0.56 | 0.612 | 0.549 | 0.446 | 0.396 | 0.413 | 0.385 | 0.396
4 | NCI-H1437 | 0.726 | 0.716 | 0.801 | 0.76 | 0.744 | 1.31 | 1.29 | 1.28 | 1.22 | 1.2 | 0.907 | 0.812 | 0.862 | 0.667 | 0.506 | 1.19 | 1.08 | 1.17 | 0.995 | 1.08
5 | NCI-H1651 | 0.735 | 0.743 | 0.913 | – | 0.943 | 0.946 | 0.869 | 0.903 | 0.787 | 0.973 | 0.741 | 0.639 | 0.719 | 0.645 | 0.605 | 0.474 | 0.455 | 0.433 | 0.442 | 0.455
6 | NCI-H1666 | 0.613 | 0.658 | 0.621 | 0.584 | 0.508 | 1.04 | 0.928 | 0.893 | 0.948 | 0.896 | 0.809 | 0.803 | 0.837 | 0.775 | 0.621 | 0.81 | 0.764 | 0.899 | 0.9 | 0.875
7 | NCI-H1734 | 1.05 | 1.15 | 1.12 | – | 1.02 | 0.89 | 0.888 | 0.844 | – | 0.765 | 0.565 | 0.621 | 0.541 | 0.529 | 0.445 | 0.63 | 0.474 | 0.456 | 0.547 | 0.427
8 | NCI-H1755 | 1.17 | 1.1 | 1.15 | 1.11 | 0.872 | 0.932 | 0.926 | 0.961 | 0.973 | 0.934 | 0.661 | 0.649 | 0.727 | 0.737 | 0.693 | 0.408 | 0.621 | 0.361 | 0.491 | 0.446
9 | NCI-H1793 | 0.525 | 0.594 | 0.648 | – | 0.566 | 0.75 | 0.764 | 0.765 | – | 0.688 | 0.223 | 0.229 | – | 0.178 | 0.254 | – | 0.48 | – | 0.696 | 0.37
10 | NCI-H1915 | 0.992 | 1.01 | 0.976 | – | 0.999 | 1.12 | 1.12 | 1.15 | – | 1.1 | 0.521 | 0.59 | 0.683 | 0.579 | 0.578 | 0.672 | 0.652 | 0.715 | 0.637 | 0.669
11 | NCI-H1944 | 0.835 | 0.845 | 0.779 | – | 0.801 | 1.03 | 0.954 | 0.905 | 0.824 | 0.759 | 0.401 | 0.367 | 0.412 | 0.325 | 0.364 | 0.479 | 0.675 | 0.368 | 0.509 | 0.471
12 | NCI-H1975 | 0.844 | 0.879 | 0.934 | 0.883 | 0.846 | 0.967 | 0.949 | 0.971 | 1.1 | 0.858 | 0.693 | 0.605 | 0.75 | 0.652 | 0.614 | 0.782 | 0.644 | 0.684 | 0.712 | 0.709
13 | NCI-H1993 | 0.82 | 0.754 | 0.741 | 0.815 | 0.748 | 0.84 | 0.76 | 0.735 | 0.843 | 0.748 | 0.508 | 0.504 | 0.546 | 0.512 | 0.559 | 0.769 | 0.723 | – | 0.892 | 0.56
14 | NCI-H2085 | 0.7 | 0.77 | 0.941 | 0.681 | 0.685 | 0.922 | 1.19 | 0.926 | 0.922 | 0.767 | 0.788 | 0.735 | 0.648 | 0.519 | 0.652 | 0.983 | 0.956 | 0.905 | 0.992 | 0.893
15 | NCI-H2087 | 1.07 | 1.27 | 1.16 | 0.725 | 0.967 | 1.26 | 1.14 | 1.31 | – | 1.18 | 0.559 | 0.538 | 0.669 | 0.473 | 0.486 | 1.34 | 1.24 | 1.32 | – | 1.38
16 | NCI-H2126 | 0.802 | 0.767 | 0.807 | 0.523 | 0.753 | 1.28 | 1.17 | 1.22 | 0.723 | 1.03 | 0.806 | 0.627 | 0.663 | 0.623 | 0.67 | 1.04 | 0.951 | 0.918 | 1.06 | 1.01
17 | NCI-H2170 | 0.286 | 0.297 | 0.289 | 0.301 | 0.263 | 1.14 | 1.08 | 1.03 | 0.994 | 1.24 | 0.788 | 0.66 | 0.652 | 0.693 | 0.531 | 0.755 | 0.834 | 0.816 | 0.817 | 0.643
18 | NCI-H2347 | 1.13 | 0.863 | 1.04 | 0.761 | 0.834 | 0.707 | 0.605 | 0.843 | 1.17 | 1.1 | 0.235 | – | 0.491 | 0.3 | 0.46 | 0.72 | 0.546 | 0.724 | 0.85 | 0.744
19 | NCI-H2405 | 1.04 | 1.12 | 1.1 | – | 1.11 | 1.13 | 1.11 | 1 | 1.05 | 1.07 | 0.506 | – | 0.586 | 0.518 | 0.628 | 0.659 | 0.642 | 0.756 | 0.649 | 0.592
20 | NCI-H3122 | 1.06 | 1.06 | 1.06 | 1.09 | 1.03 | – | 0.94 | 1.02 | 1.07 | 0.976 | 1 | 0.899 | 0.889 | 0.768 | 0.563 | 0.985 | 0.922 | 1.06 | 1.02 | 0.952
21 | PC-3 [JPC-3] | 0.47 | 0.46 | 0.509 | – | 0.461 | 1.13 | 1.11 | 1.12 | 1.08 | 1.05 | 0.674 | 0.75 | 0.79 | 0.662 | 0.681 | 0.802 | 0.762 | – | 0.726 | 0.8
22 | PC-14 | 0.273 | 0.32 | 0.407 | 0.304 | 0.304 | 1.07 | 1.03 | 0.954 | 0.959 | 0.907 | 0.871 | 0.655 | 0.855 | 0.747 | 0.494 | 0.356 | 0.341 | 0.284 | 0.342 | 0.282
23 | RERF-LC-KJ | 0.91 | 0.868 | 0.873 | 0.835 | 0.829 | 0.877 | 0.918 | 0.922 | 0.868 | 0.893 | 0.606 | 0.503 | 0.565 | 0.505 | 0.567 | 0.913 | 0.992 | 0.815 | 0.883 | 0.969
